≈ marks a conversion by molar mass, not a printed value. Marks after values point to notes of the source that are not given here.
Tests used:
[1] = target: T1, M. tuberculosis RecA intein (Mycobacterium tuberculosis, UniProt P9WHJ3); assay type: biochemical
T1 sequence (P9WHJ3 with tags, fused parts or gaps): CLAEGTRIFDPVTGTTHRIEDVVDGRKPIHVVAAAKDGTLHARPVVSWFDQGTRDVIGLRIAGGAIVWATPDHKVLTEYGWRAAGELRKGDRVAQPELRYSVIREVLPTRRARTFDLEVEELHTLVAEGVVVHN

BCG = BCG MIC; assay type: cell-based
Mtu H37Rv [2] = assay: Mtu H37Rv MIC; assay type: cell-based, M. tuberculosis
Mtu H37Rv [3] = assay: Alamar Blue reduction inhibition measured by TAACF; assay type: cell-based, M. tuberculosis; conditions: Mycobacterium tuberculosis, at 6.25 μg/ml, as measured by TAACF

Structure (SMILES) | IC50 [1] [µM] | further results
Oc1cc(OCc2ccc(C(F)(F)F)cc2)ccc1-c1cc[nH]n1 [Compound 44] | 5 | –
O=C(Nc1ccccc1)c1nnsc1S(=O)(=O)c1ccc(Cl)cc1 [Compound 10] | 8 | –
Cn1cc(C(=O)c2cccc(Cl)c2Cl)cc1C(=O)C(Cl)(Cl)Cl [Compound 40] | 5 | –
N#CC1(C#N)C(c2ccccc2Cl)C1(C#N)C#N [Compound 21] | 8 | –
O=C(CCl)c1ccc(Cc2ncc(C(F)(F)F)cc2Cl)s1 [Compound 57] | < 5 | –
N#CC(N)=C(C#N)NCc1ccccc1Sc1ccc(Cl)cc1 [Compound 29] | 30 | –
CC1(C)CC(=O)C2(C(=O)C1)C(c1ccc(Cl)cc1Cl)C2(C#N)C#N (stereo not drawn) [Compound 37] | 5 | –
Cc1cc(S(=O)(=O)c2ccc(C(F)(F)F)cc2[N+](=O)[O-])c(Cl)cc1Cl [Compound 66] | < 5 | BCG MIC (BCG): >20 µg/mL
O=C(c1nnsc1[S+]([O-])c1ccc(Cl)cc1)N1CCCCC1 (stereo not drawn) [Compound 11] | 4 | BCG MIC (BCG): 5 µg/mL; Mtu H37Rv MIC (Mtu H37Rv [2]): 5 µg/mL
O=C(OCn1ncc(Cl)c(Cl)c1=O)c1cccc(C(F)(F)F)c1 [Compound 38] | 0.8 | –
Oc1ccc(Br)cc1CNc1cccc(C(F)(F)F)c1 [Compound 70] | 12 | –
O=C(c1c[nH]c(C(=O)C(Cl)(Cl)Cl)c1)c1cccc(Cl)c1Cl [Compound 59] | < 5 | –
O=C(Oc1ccc(C=Nc2ccc(F)cc2)cc1)c1ccco1 [Compound 77] | 30 | –
COc1ccc(NC(=O)C(Cl)=C(Cl)[S+]([O-])Cc2ccccc2)cn1 (stereo not drawn) [Compound 9] | 10 | BCG MIC (BCG): 5 µg/mL; Mtu H37Rv MIC (Mtu H37Rv [2]): 5^d μg/ml
O=S(=O)(c1ccc(Br)cc1)c1snnc1-c1ccccc1 [Compound 6] | 4 | inhibition at 6.25 µg/mL (Mtu H37Rv [3]): 32%
O=C(Nc1ccc(F)cc1)c1nnsc1S(=O)(=O)c1ccc(Cl)cc1 [Compound 12] | 3 | BCG MIC (BCG): 20 µg/mL; Mtu H37Rv MIC (Mtu H37Rv [2]): 10 µg/mL
COc1cccc(N(NC(=O)C(O)(c2cccc(C(F)(F)F)c2)c2cccc(C(F)(F)F)c2)C(=O)CCl)c1 [Compound 51] | 2 | –
O=C(Oc1cc(OC(=O)c2ccco2)cc(OC(=O)c2ccco2)c1)c1ccco1 [Compound 75] | < 5 | –
[O-][S+](c1ccc(C(F)(F)F)cc1)c1cnn2c(Cl)nnc2c1 (stereo not drawn) [Compound 45] | 5 | BCG MIC (BCG): 5 µg/mL; Mtu H37Rv MIC (Mtu H37Rv [2]): 2.5 µg/mL
O=C(c1c[nH]c(C(=O)C(Cl)(Cl)Cl)c1)c1ccc(Cl)cc1Cl [Compound 62] | < 5 | –
CC(=O)c1cc([N+](=O)[O-])c(Sc2ccc(Cl)cc2)s1 [Compound 4] | 5 | –
N#Cc1nccnc1S(=O)(=O)c1cccs1 [Compound 31] | 5 | BCG MIC (BCG): 6 µg/mL; Mtu H37Rv MIC (Mtu H37Rv [2]): 10 µg/mL
CCCN(CCC)S(=O)(=O)c1ccc(C(=O)SCC(=O)OCC)cc1 [Compound 2] | 8 | –
CCOC(=O)c1cc(C#N)c(Sc2nnc(SC)s2)nc1C(F)(F)F [Compound 72] | < 5 | BCG MIC (BCG): 10 µg/mL; Mtu H37Rv MIC (Mtu H37Rv [2]): 10 µg/mL
COc1ccc(NC(=O)C(Cl)=C(Cl)[S+]([O-])Cc2ccc(C)cc2)cn1 (stereo not drawn) [Compound 43] | 3 | BCG MIC (BCG): 1 µg/mL; Mtu H37Rv MIC (Mtu H37Rv [2]): 2.5 µg/mL
O=C(Nn1c(C2CCCCC2)nc2ccccc2c1=O)c1cc([N+](=O)[O-])cc([N+](=O)[O-])c1Cl [Compound 53] | 1 | BCG MIC (BCG): ~20 µg/mL

Structure (SMILES) | IC50 [1] [µM] | further results
Cc1nn(C(N)=S)c(O)c1C(c1cccc(Cl)c1Cl)C(C#N)C#N (stereo not drawn) [Compound 81] | 12 | –
Oc1cc2c(cc1C(c1ccc(Cl)c(Cl)c1)N1CCCC1)OCO2 (stereo not drawn) [Compound 1] | 5 | –
CCOC(=O)c1nnc(-c2ccccc2)nc1Sc1ccccc1C(=O)OC [Compound 41] | 2 | –
CC1(C)CC(=O)c2c(S(C)(=O)=O)sc(C(=O)OCc3ccccc3)c2C1 [Compound 30] | 5 | BCG MIC (BCG): 20 µg/mL
Cc1cc(Oc2c([N+](=O)[O-])cc(C(F)(F)F)cc2[N+](=O)[O-])ccc1Cl [Compound 64] | 6 | –
O=C(Oc1ccc(C=Nc2ccc(F)cc2)cc1)c1cccs1 [Compound 78] | 13 | –
O=S(=O)(c1cccc(C(F)(F)F)c1)c1snnc1-c1ccccc1 [Compound 35] | 1 | MIC (BCG; Mycobacterium tuberculosis variant bovis BCG, BCG, read-out: BCG MIC): 20 µg/mL (≈ 54 µM)
CS(=O)(=O)c1cc(C(F)(F)F)cc(S(C)(=O)=O)c1S(C)(=O)=O [Compound 3] | 10 | BCG MIC (BCG): 20 µg/mL; Mtu H37Rv MIC (Mtu H37Rv [2]): 20^a μg/ml
O=C(Sc1ccccc1)c1ccc2ncsc2c1 [Compound 68] | 8 | –
O=C(Oc1ccc(Br)cc1)c1ccco1 [Compound 76] | 8 | –
CSC(Nc1ccc(F)cc1)=C(C#N)C(=O)c1ccco1 [Compound 22] | 3 | Mtu H37Rv MIC (Mtu H37Rv [2]): 20 µg/mL
C=CCn1c(Sc2ncnc3c2sc(=S)n3CC=C)nnc1-c1ccccc1 [Compound 27] | 2 | –
N#CC1(C#N)C(c2cccc(I)c2)C(C(N)=O)N2C=Cc3ccccc3C21 (stereo not drawn) [Compound 17] | 20 | –
O=[N+]([O-])c1cc(C(F)(F)F)cc([N+](=O)[O-])c1Sc1nc2ccccc2[nH]1 [Compound 55] | 15 | BCG MIC (BCG): 5 µg/mL; Mtu H37Rv MIC (Mtu H37Rv [2]): 20 µg/mL
O=C(Oc1ccc(Cl)cc1)c1snnc1-c1ccccc1 [Compound 23] | 3 | –
Oc1cc2c(cc1C(c1ccc(C(F)(F)F)cc1)N1CCOCC1)OCO2 (stereo not drawn) [Compound 69] | < 5 | –
c1ccc(-c2cnc3nonc3n2)cc1 [Compound 74] | < 5 | –
CCOC(=O)c1cnc2c(F)ccc(F)c2c1Oc1cncc(Cl)c1 [Compound 67] | < 5 | –
O=S(=O)(Cc1cccc(C(F)(F)F)c1)c1snnc1-c1ccccc1 [Compound 36] | 5 | –
N#CCSc1ccc(C#N)cc1 [Compound 24] | 11 | MIC (Mtu H37Rv [2]; Mycobacterium tuberculosis, H37RV): 5 µg/mL (≈ 28.7 µM)
O=S(=O)(c1ccc(Cl)c(Cl)c1)c1snnc1-c1ccccc1 [Compound 7] | – | inhibition at 6.25 µg/mL (Mtu H37Rv [3]): 96%
O=C(CCl)N1CCN2C(=O)c3ccccc3C12c1ccc(Cl)cc1 (stereo not drawn) [Compound 13] | 4 | BCG MIC (BCG): 20 µg/mL; Mtu H37Rv MIC (Mtu H37Rv [2]): 10 µg/mL
O=C1CSC(c2ccc(Cl)cc2)C(=O)N1c1ccc(C(F)(F)F)cc1 (stereo not drawn) [Compound 8] | 5 | –
CCOC(=O)c1cc(C#N)c(Sc2nnc(SCC3CC3)s2)nc1C(F)(F)F [Compound 71] | < 5 | BCG MIC (BCG): 10 µg/mL; Mtu H37Rv MIC (Mtu H37Rv [2]): 10 µg/mL
CCOC(=O)CSc1nc2c(c(-c3cccs3)c1C#N)CN(C)CC2 [Compound 56] | < 35 | –
COC(=O)c1sc(S(C)(=O)=O)c(C#N)c1-c1cc(C(C)(C)C)oc1C [Compound 33] | 4 | –

Source: patent US7553832B2, “Methods and compositions for specific inhibition of protein splicing by small molecules” (Boston Biomedical Research Institute, priority 2005, dated 2009)
